Laboratory results as given in ChEMBL document CHEMBL1149033, “Novel HIV-inhibitory halistanol sulfates F-H from a marine sponge, Pseudoaxinissa digitata” (J Nat Prod, 1994).
Activity calls are given as the source filed them. No cut-off for these calls is given here.

Key:
[1] = test system: Human immunodeficiency virus 1; assay: Antiviral activity against HIV1 assessed as cytoprotective activity against viral-infection by NCI primary screen; assay type: functional, organism-based
[2] = test system: Human immunodeficiency virus 2; assay: Antiviral activity against HIV2 assessed as cytoprotective activity against viral-infection by NCI primary screen; assay type: functional, organism-based

SMILES | EC50 [1] [µg/mL] | Activity [2]
CCC(C)(C)C(C)CC[C@@H](C)[C@H]1CC[C@H]2[C@@H]3C[C@H](OS(=O)(=O)[O-])[C@H]4C[C@H](OS(=O)(=O)[O-])[C@@H](OS(=O)(=O)[O-])C[C@]4(C)[C@H]3CC[C@]12C.[Na+].[Na+].[Na+] (some centres undefined) [HALISTANOL SULFATE F] | 3 | Active
CC(C)[C@@H](C)CC[C@@H](C)[C@H]1CC[C@H]2[C@@H]3C[C@H](OS(=O)(=O)[O-])[C@H]4C[C@H](OS(=O)(=O)[O-])[C@@H](OS(=O)(=O)[O-])C[C@]4(C)[C@H]3CC[C@]12C.[Na+].[Na+].[Na+] [HALISTANOL SULFATE G SODIUM] | 6 | Active
